# Measured values published in patent publication US20120283313A1, “INHIBITION AND TREATMENT OF PROSTATE CANCER METASTASIS” (NORTHWESTERN UNIVERSITY, priority 2007, published 2012).
# “Also recorded” adds a separate entry of the source. Where two headings read alike, the source gives them in different places.
# Tests used:
# [1] = tested on: prostate epithelial cells; test: Phase 2 trial: nuclear morphology of prostate epithelial cells; format: in vivo, human; conditions: men, genistein treated vs controls
# From the text: Though morphologically “normal,” these cells are present within organs with PCa, have pre-cancer molecular changes, and represent an appropriate target cell type for therapy that inhibits a process associated with PCa progression, in this case, development of the metastatic phenotype. […] These findings are consistent with its effects in vitro and in mice.
# [2] = mice, free about a tenth of total
# MMP-2 = test: Phase 2 trial: MMP-2 transcript levels by LCM and qRT/PCR; format: in vivo, human; conditions: normal prostate epithelial cells, 2 mg genistein/kg/day, normalized to GAPDH
# [3] = men, 2 to 8 mg genistein/kg; cited from earlier work
# [4] = tested on: human prostate cancer (PCa) cell lines; test: cell invasion assay of PCa cell lines with genistein / siMEK4; format: cell-based
# From the text: MEK expression was examined in six human prostate cancer (PCa) cell lines: PC3 and PC3-M metastatic PCa cells, 1532CPTX and 1542 CPTX immortalized localized PCa cells, and 1532 NPTX and 1542 NPTX immortalized normal epithelial cells. The last four cell lines are primary cells, are HPV transformed, and thus represent early stages of prostate carcinogenesis. They provide representative members of the metastatic phenotype, as well as members of early state phenotypes. […] All six cell lines also secrete as well as respond to TGFβ, a regulator of cell motility that plays a role in PCa cell invasiveness.
# Assays were conducted using methods as described in Craft et al. (2008, Mol. Pharmocol., 73(1):235-242; herein incorporated by reference in its entirety).
# PC3M cells = test: quantitative image analysis of nuclear morphology, mouse tissue; format: in vivo, mice; conditions: 250 mg genistein vs controls
# From the text: Change in cell morphology is a generally recognized measure of change in cell adhesion. Compounds which increase cell adhesion of prostate cancer cells in vivo may inhibit prostate cancer metastasis. […] Quantitative image analysis according to established methods was used to measure in vivo changes in nuclear morphology in the prostate. (Bartels, et al., Prostate, 48:144-55, (2001); Boone, et al., Urology, 57:129-31 (2001); Bartels, et al., Anal. Quant. Cytol. Histol. 20:397-406 (1998); Bartels et al., Anal. Quant. Cytol. Histol. 20:389-96; Veltri, et al., J. Cell Biochem. Suppl., 151-57 (2000); herein incorporated by reference in their entireties).
# Mouse: From the mouse experiment of Example 5, primary (prostate gland) and metastatic (local lymph nodes) tissue was Feulgen-stained, and the nuclear morphology of PC3M cells was quantitated on a ChromaVision ACIS® II Image Analysis System. […] Specifically, for lymph node: cell area increased by 19.5±2.1%, cell length by 9.1±1.1%, and cell width by 9.5±1.1% (p:S 0.01 for all). For primary tumor: cell length increased by 3.0±1.1% (p:S 0.05).
# human PC3-M PCa cells = test: orthotopic PC3-M implantation metastasis model in athymic mice
# p38 MAP kinase = test: Western blot of primary tumor tissue for p38 MAP kinase; format: in vivo, mice; conditions: fresh frozen primary tumor tissue
# [5] = tested on: prostate epithelial cells; test: Phase 2 trial: LCM and 12K gene array of prostate epithelial cells; format: in vivo, human
# From the text: In particular, methodology was employed wherein prostate epithelial cells are selectively removed from human prostate tissue by laser capture microdissection (LCM), the resultant RNA linear amplified, and custom manufactured 12K gene arrays are probed. Ding, et al., Id.
# MEK4 = test: TGFβ stimulated phosphorylation of MEK4 in vivo; format: cell-based
# Procedure: Phosphorylation by MEK4 (FIG. 4A) and phosphorylation of MEK4 (FIG. 7) was assayed. The Upstate Biotechnology MEK4 assay system was used to measure inhibition of MEK4 activity. Phosphorylation of MEK4 in vivo was assayed using standard techniques.
# [6] = men, 2 mg genistein/kg/day for 1 month
structure (smiles),measurement,setting,value
O=c1c(-c2ccc(O)cc2)coc2cc(O)cc(O)c12 [genistein],increase in length (nuclear morphology),[1],1.5±0.7%
same,increase in width (nuclear morphology),[1],2.7±0.7%
same,increase in area (nuclear morphology),[1]; only a trend,2.0±1.0%
same,estimated free concentration,[2]; 100 mg cohort,29 nM
same,estimated free concentration,[2]; 250 mg cohort,131 nM
same,"MMP-2 transcript level, percent of controls (mean±SEM)",MMP-2,24±4.1%
same,peak concentration of total genistein,[3],4.3 to 16.3 nM
same,effect of genistein on invasiveness when MEK4 expression suppressed by siMEK4,"[4]; PCa cells, genistein plus siMEK4",the effect of genistein was abrogated
same,invasion of PCa cells,"[4]; early and late stage PCa cell lines, presence of genistein",inhibits invasion of both early and late stage PCa cells
same,increase in cell area,PC3M cells; lymph node,19.5±2.1%
same,increase in cell length,PC3M cells; lymph node,9.1±1.1%
same,increase in cell width,PC3M cells; lymph node,9.5±1.1%
same,increase in cell length,PC3M cells; primary tumor,3.0±1.1%
same,tumor volume,"human PC3-M PCa cells; 0, 100, 250 mg genistein/kg chow",but not tumor volume
same,weight of mice,human PC3-M PCa cells; between dosing cohorts,no difference in the weight of mice between cohorts
same,level of total p38 MAP kinase protein,p38 MAP kinase,total amount of p38 MAP kinase increased
same,phosphorylation of p38 MAP kinase,p38 MAP kinase,decreasing phosphorylation of p38 MAP kinase; also recorded: decreased its phosphorylation
same,"gene array expression level, mean (SE)","[5]; MALATI, genistein-treated subjects",8.22 (0.87)
same,"gene array expression level, mean (SE)","[5]; brain acid-soluble protein 1, genistein-treated subjects",13.3 (0.34)
same,"gene array expression level, mean (SE)","[5]; heat shock protein 90, genistein-treated subjects",8.51 (0.5)
same,"gene array expression level, mean (SE)","[5]; heparin cofactor II, genistein-treated subjects",2.19 (0.21)
same,"gene array expression level, mean (SE)","[5]; prostate acid phosphatase, genistein-treated subjects",6.85 (0.49)
same,"gene array expression level, mean (SE)","[5]; sorbitol dehydrogenase, genistein-treated subjects",5.33 (0.59)
same,TGFβ stimulated phosphorylation of MEK4,MEK4,does not block TGF-β stimulated phosphorylation of MEK4 itself; also recorded: does not block such phosphorylation
same,"trough concentration of free genistein, mean±SEM",[6],26.6 ± 6.6 nM
